Experimental findings from ChEMBL document CHEMBL1201862, “PubChem BioAssay data set” (2004) are described below.

Usually EC50 stands for the concentration giving half of the maximal effect. One may read the AC50 as the concentration at which the activity in the assay is half-maximal.

Assay [1] concerns the target T1, Polyadenylate-binding protein 1 (Homo sapiens, UniProt P11940). The experiment in a line: MLLE domain peptide-binding blockers, IC50 – biochemical, fluorescence polarization, FITC-PAM2 peptide, dose response (AID 602259). Type of assay: functional. As to conditions: read-out: IC50_Mean.
For assay [2], the target named is T1, Polyadenylate-binding protein 1. The experiment in a line: MLLE binding blockers, Cy5 peptide tracer – biochemical, fluorescence polarization, Cy5-PAM2 peptide, secondary, miRNA deadenylation inhibitor project, dose response (AID 602260). The assay is classed as functional. The note with it: read-out: IC50_Mean.
Assay [3] in a line: Trypanosoma cruzi growth suppression in host cells – NIH3T3 host cells, beta-gal luminescence, confirmation (AID 2044).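 Note: intracellular parasites grown in NIH/3T3 mouse fibroblasts as host cells; luminescent beta-galactosidase reporter signal from transgenic T. cruzi replicating inside host cells; inhibitors lower the luminescence signal.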 The assay is classed as functional, cell-based.
Assay [4] has as its target T2, DNA repair protein RAD52 homolog (Homo sapiens, UniProt P43351).
T2 sequence (P43351 whole entry): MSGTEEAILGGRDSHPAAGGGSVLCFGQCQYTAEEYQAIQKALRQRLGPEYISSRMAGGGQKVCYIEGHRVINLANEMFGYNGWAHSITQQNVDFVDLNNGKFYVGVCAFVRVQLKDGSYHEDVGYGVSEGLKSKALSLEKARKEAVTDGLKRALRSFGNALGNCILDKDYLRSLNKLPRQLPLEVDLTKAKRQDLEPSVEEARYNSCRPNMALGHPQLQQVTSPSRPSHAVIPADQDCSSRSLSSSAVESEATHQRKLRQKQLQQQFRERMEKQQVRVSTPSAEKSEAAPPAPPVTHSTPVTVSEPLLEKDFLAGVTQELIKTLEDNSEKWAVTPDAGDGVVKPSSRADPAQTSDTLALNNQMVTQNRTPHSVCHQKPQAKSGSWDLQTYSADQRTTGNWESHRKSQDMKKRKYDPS
The assay is classed as functional, biochemical.

A short description of assay [5]: NIH3T3 cell viability loss – ATP luminescence, mouse fibroblasts, counter-screen, dose response (AID 2010).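 Note: cells exposed to compound for about 90 hours before reading.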 The assay is classed as functional, cell-based.
The target in assay [6] is T3, Ubiquitin-conjugating enzyme E2 N (Homo sapiens, UniProt P61088).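 Note: Dose-response confirmation in a TR-FRET assay detecting UBC13-driven polyubiquitin chain formation, inhibition measured.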
T3 sequence (P61088 whole entry): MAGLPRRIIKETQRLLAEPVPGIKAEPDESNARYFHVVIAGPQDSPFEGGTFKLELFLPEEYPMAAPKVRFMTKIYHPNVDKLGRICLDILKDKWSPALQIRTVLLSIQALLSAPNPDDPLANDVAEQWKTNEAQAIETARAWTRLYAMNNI
Type of assay: functional.

Assay [7] has as its target T4, Short transient receptor potential channel 4 (Mus musculus, UniProt Q9QUQ5).
T4 sequence (Q9QUQ5 whole entry): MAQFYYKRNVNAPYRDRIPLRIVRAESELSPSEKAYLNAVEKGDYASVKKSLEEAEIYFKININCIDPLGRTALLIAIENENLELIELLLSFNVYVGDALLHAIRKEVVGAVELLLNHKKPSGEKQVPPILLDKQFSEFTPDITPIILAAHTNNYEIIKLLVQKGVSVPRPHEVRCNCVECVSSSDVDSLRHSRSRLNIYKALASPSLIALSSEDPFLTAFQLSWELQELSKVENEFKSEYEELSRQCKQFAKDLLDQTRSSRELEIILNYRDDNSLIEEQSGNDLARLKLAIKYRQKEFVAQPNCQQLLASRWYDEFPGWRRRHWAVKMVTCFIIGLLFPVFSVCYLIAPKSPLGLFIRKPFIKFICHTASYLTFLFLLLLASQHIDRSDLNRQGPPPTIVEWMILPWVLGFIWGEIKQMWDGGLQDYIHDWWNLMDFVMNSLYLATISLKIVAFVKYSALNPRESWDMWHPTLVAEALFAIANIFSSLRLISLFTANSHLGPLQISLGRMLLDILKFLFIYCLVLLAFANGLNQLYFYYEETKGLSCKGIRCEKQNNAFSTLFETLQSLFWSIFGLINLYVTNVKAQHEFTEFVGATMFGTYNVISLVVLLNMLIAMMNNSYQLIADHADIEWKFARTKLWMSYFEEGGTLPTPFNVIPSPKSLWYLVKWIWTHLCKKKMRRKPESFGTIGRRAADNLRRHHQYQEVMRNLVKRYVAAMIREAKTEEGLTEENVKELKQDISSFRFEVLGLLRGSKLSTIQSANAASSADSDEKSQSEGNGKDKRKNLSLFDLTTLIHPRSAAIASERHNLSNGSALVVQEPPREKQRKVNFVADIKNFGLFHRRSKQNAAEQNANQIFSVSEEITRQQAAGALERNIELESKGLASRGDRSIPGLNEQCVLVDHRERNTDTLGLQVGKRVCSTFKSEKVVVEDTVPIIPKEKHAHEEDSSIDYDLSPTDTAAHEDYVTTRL
In words: calcium entry via TRPC4 opening agents – cell-based, HEK293 TRPC4/mu-opioid, Fluo-4 calcium, dose response (AID 434937). Type of assay: functional.

Assay [8] concerns Streptococcus sp. 'group A'. The experiment in a line: Streptococcus pyogenes SK(-)GAS viability under kanamycin – luminescence, BacTiterGlo, confirmation, counter-screen for streptokinase expression inhibitor project, dose response (AID 1900). The assay is classed as functional, organism-based.
Another assay concerns Streptococcus. In words: GAS UMAA2166 growth inhibition – luminescence, BacTiterGlo, counter-screen for streptokinase expression inhibitor project, dose response (AID 1915).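 Note: potency for reduction of bacterial viability or growth.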 Type of assay: functional, organism-based. In general terms: A counterscreen serves to expose hits that act by an unwanted route or on another target.
The target in assay [9] is T5, High affinity choline transporter 1 (Homo sapiens, UniProt Q9GZV3).
T5 sequence (Q9GZV3 whole entry): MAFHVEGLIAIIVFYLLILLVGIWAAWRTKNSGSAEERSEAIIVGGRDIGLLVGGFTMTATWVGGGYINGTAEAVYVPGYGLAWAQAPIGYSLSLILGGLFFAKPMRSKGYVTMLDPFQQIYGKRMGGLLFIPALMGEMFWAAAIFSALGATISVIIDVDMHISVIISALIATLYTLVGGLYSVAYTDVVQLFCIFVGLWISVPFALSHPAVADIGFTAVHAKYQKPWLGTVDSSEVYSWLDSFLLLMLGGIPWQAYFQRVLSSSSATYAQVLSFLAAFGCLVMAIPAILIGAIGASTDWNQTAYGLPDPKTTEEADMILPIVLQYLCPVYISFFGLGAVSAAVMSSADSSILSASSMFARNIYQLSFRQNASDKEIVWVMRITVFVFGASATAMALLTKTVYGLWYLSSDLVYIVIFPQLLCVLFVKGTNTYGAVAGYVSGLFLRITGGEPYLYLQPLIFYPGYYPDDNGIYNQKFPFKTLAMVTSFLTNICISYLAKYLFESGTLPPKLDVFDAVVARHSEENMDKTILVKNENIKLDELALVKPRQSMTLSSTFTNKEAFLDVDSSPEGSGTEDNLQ
The experiment in a line: human choline transporter blockers, potency – cell-based, 5-point CRC, membrane potential dye, dose response (AID 504840). Type of assay: functional.

A short description of assay [10]: blockers of HIV-1 ZM109 envelope-driven cell-cell fusion – HeLa effector, CEM target cells, luciferase, cherry-pick, dose response (AID 652058).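 Note: luciferase signal from HIV-1 Env mediated cell-cell fusion of effector and target cells.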 Type of assay: functional, cell-based.
A short description of assay [11]: HIV-1 AD8 envelope cell-cell fusion blockers – cherry-pick, dose response (AID 652062).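 Note: luciferase signal from cell-cell fusion driven by HIV-1 clade B AD8 Env; potency is for inhibitors of fusion seen as a drop in luminescence.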 Type of assay: functional, cell-based.
Assay [12] is described as follows: fluconazole-exposed Candida albicans growth modulators – fluorescence, retest, confirmation (AID 2467). The assay is classed as functional, cell-based.
Assay [13] in a line: NIH-3T3 fibroblast cytotoxicity, dose response, cytotoxicity control, cell-based, fluorescence, Alamar Blue, secondary assay (AID 2327).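 Note: NIH-3T3 mouse fibroblasts cultured with fluconazole at 8 µg/mL.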 Type of assay: functional. (Resazurin is reduced to fluorescent resorufin, in cell work by metabolically active cells.)
The nature of assay [14]: Fluorescence-based cell-based high throughput dose response assay for inhibitors of the interaction of nucleotide-binding oligomerization domain containing 2 (NOD2) and the receptor-interacting serine-threonine kinase 2 (RIPK2). The assay is classed as functional. The note with it: Homo sapiens.
A further assay has as its target Paired box protein Pax-8 (Homo sapiens, UniProt Q06710). The experiment in a line: PAX8 transcriptional activity inhibition in RMG-I – RMG-I cells, luciferase, cherry-pick, dose response (AID 687027).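 Note: luciferase reporter driven by Pax8 target thyroperoxidase promoter measured by SteadyGlo luminescence.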 Type of assay: functional, cell-based.
The next assay deals with T6, Aminopeptidase N (Plasmodium falciparum FcB1/Columbia, UniProt O96935).
T6 sequence (O96935 whole entry): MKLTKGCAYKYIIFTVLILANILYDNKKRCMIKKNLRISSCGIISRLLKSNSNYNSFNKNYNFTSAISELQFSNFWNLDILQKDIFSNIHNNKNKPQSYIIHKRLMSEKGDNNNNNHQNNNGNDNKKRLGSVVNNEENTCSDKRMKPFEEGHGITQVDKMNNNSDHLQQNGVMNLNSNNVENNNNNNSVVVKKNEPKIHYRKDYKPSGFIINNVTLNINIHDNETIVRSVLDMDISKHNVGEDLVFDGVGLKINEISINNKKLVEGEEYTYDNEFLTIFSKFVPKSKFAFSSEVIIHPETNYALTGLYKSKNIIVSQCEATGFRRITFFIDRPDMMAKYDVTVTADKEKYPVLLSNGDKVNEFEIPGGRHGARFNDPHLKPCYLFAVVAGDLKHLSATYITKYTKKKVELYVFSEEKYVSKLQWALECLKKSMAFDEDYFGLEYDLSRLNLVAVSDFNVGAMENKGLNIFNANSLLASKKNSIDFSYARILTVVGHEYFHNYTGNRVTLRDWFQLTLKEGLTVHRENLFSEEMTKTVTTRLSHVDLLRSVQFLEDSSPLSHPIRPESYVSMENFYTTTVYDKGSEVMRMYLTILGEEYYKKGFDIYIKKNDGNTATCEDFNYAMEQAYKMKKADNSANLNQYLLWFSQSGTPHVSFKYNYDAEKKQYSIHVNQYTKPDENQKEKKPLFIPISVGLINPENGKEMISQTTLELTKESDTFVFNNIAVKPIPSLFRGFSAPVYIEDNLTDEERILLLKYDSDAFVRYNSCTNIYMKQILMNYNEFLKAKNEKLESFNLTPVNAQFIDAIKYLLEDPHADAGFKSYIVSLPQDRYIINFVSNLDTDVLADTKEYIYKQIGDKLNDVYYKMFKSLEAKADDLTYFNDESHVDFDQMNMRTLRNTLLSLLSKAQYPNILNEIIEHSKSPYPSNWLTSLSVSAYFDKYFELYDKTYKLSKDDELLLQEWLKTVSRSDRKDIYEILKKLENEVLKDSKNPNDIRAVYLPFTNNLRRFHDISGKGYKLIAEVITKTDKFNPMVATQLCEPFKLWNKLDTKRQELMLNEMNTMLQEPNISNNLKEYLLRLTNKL
In words: malaria alanyl aminopeptidase activity blockers – biochemical, fluorogenic H-Leu-NHMec substrate, 1536-well (AID 1445). Set-up: species or system Plasmodium falciparum 3D7, 3D7.

Active and inactive are the calls of the source.

T1 sequence (P11940 whole entry, the tested form may be a part): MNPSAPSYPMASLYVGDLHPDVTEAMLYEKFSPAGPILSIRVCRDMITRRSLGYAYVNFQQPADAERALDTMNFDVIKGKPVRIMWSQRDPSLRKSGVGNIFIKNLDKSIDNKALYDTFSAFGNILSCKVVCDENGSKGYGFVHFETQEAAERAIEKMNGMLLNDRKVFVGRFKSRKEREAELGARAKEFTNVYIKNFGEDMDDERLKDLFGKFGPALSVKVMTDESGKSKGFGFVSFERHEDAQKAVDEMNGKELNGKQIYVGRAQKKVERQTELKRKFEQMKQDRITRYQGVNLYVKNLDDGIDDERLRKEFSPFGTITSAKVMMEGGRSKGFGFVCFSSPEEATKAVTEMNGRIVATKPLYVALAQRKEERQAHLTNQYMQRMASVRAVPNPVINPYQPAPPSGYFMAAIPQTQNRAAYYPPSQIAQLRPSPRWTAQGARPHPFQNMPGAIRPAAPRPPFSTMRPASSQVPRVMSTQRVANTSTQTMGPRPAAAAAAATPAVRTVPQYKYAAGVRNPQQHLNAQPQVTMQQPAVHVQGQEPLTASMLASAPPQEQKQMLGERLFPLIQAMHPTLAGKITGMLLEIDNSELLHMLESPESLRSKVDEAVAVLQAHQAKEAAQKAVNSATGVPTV
Chain of Paired box protein Pax-8 (Q06710 whole entry): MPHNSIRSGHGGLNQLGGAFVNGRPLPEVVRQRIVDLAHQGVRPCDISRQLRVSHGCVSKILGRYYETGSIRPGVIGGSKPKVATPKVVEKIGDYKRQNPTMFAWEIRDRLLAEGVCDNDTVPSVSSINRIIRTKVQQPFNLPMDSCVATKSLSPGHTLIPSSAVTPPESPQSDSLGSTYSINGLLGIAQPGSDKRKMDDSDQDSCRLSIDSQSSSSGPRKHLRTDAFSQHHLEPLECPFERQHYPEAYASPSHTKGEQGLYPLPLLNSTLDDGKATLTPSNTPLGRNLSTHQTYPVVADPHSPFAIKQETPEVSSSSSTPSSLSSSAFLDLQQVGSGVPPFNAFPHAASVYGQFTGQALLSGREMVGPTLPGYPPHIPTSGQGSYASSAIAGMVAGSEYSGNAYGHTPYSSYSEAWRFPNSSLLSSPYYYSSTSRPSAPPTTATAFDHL

With `Cc1ccc(CN(C)C(=O)COC(=O)CSc2ccc([N+](=O)[O-])cc2)cc1`, the IC50 in assay [1] and in [2] was > 66 µM (inactive) in each case.

As for `COc1cccc(OCC(O)CN2CCN(CCN3C(=O)c4cccc5cccc(c45)C3=O)CC2)c1` (centres undefined), the results for the EC50 in assay [3] and in [5] were 1.59 µM (active) and > 60 µM (inconclusive), respectively. In [4], the AC50 was 18.2 µM (active). Moreover, the IC50 in assay [6] is > 20 µM (inactive).

Regarding `Cc1onc(-c2ccccc2)c1C(=O)NC(=S)NNC(=O)c1ccco1`, the figures for the EC50 (in [7]; in [8]; in the assay with Streptococcus) were 10.6 µM (active), 2.79 µM (active) and 10.6 µM (active), respectively. In addition, the IC50 in assay [9] is 15.8 µM (active).

Turning to `CNC12CCc3cc(OC)c(OC)c(c31)-c1cc3c(cc1C2)OCO3` (centres undefined), the AC50 in [4] was 9.25 µM (active).

Regarding `CC(=O)C1=C(C)NC(=S)NC1c1ccccc1` (centres undefined), the AC50 is 27 µM (active) in assay [10] and 45 µM (active) in [11].

As to `Cn1c(=O)[nH]c2nnc(-c3ccc(Cl)c(Cl)c3)nc2c1=O`, the IC50 in [9] is 11.2 µM (active).

In the case of `O=C1NC(=O)/C(=C/c2cccc3ccccc23)S1`, the EC50 in assay [12] is 0.76 µM (active); in assay [13], > 160 µM (inactive). Besides, the IC50 in assay [9] was 11 µM (active).

Consider `O=C(NCCCN1CCOCC1)c1ccc(Cl)c(S(=O)(=O)N2CCCCCC2)c1`, for which the IC50 in assay [9] was 12.3 µM (active).

Turning to `C=CC(=O)N1C/C(=C/c2ccc(Cl)cc2)C(=O)/C(=C\c2ccc(Cl)cc2)C1`, the IC50 in assay [14] is 2.58 µM (active). Further, the AC50 at Paired box protein Pax-8 was 1.82 µM (active).

In the case of `CC(=O)NCC/N=C(\C)c1sc2ccccc2c1O`, the IC50 in [1] and in [2] was > 66 µM (inactive) each time.

With `C#CC[N+]1(CC#Cc2cccc(C)c2)CCCCC1`, the IC50 in assay [9] is 12 µM (active).

For the molecule `Cc1nn2c(N3CCN(C)CC3)c3c(nc2c1-c1ccccc1)CCCC3`, the IC50 is 61.7 µM (active) at Aminopeptidase N and 10.1 µM (active) in assay [9].

In the case of `O=C(CSc1ccc2c(c1)OCCO2)NCCc1ccc(Cl)cc1Cl`, the IC50 in assay [1] and in assay [2] was > 66 µM (inactive) throughout.

On to `CCOC(=O)c1c(C)n(-c2ccc(C)cc2)c2ccc(OCC(O)CNCCCO)cc12` (centres undefined), for which, in assay [4], the AC50 is 6.8 µM (active). Further, the IC50 in [6] is > 20 µM (inactive).
